One assay deals with CD11b+ cells. As to the kind of experiment: Enumeration of CD11b+ cells in DED corneas (immunohistochemistry). It is filed as in vivo, mouse. The source says:
(§1) Eight to ten week-old female C57BLI6 mice (Charles River Laboratory, Wilmington, Mass.) were used in accordance with the standards in the ARVO Statement for the Use of Animals in Ophthalmic and Vision Research. The research protocol was approved by the Schepens Eye Research Institute Animal Care and Use Committee. Dry eye was induced in murine eyes using a Controlled Environment Chamber (CEC) which exposes the mice to high-flow desiccated air. […]
(§2) Freshly excised corneas were washed in PBS, fixed in acetone for 15 minutes and then double stained with CD31 and LYVE-1 as described previously. To analyze infiltration of CD11b^+/LYVE-1 cells, corneas from three mice from each group were taken and cells were counted in 5-6 areas in the periphery ([…] area from the limbus) of each cornea in a masked fashion, using epifluorescence microscope (model E800; Nikon, Melville, N.Y.) at 40× magnification. The mean number of cells was obtained by averaging the total number of cells in all the areas studied and the result was expressed as the number of positive cells per mm^2.
(§3) Anti-VEGF-C antibodies (VGX-100; Vegenics Limited, Australia) were administered intraperitonealy daily from day 1 to day 10 to DED mice. Mice were assessed clinically using corneal fluorescent staining. […]

The subject of another assay is corneal lymphatics. As to the kind of experiment: Corneal lymphangiogenesis in DED mice (CD31/LYVE-1 staining, morphometry). The arrangement: species or system mouse. As to conditions: in vivo blockade of VEGF-C.
Excerpt: as §1, §2
Morphology of lymphatics was analyzed using an automated image analysis program written with Matlab (The Mathworks, Inc., Natick, Mass.). […] The resultant isolated lymphatic vessels were analyzed morphologically using two metrices, Lymphatic Area (LA) and Lymphatic Caliber (LC). […]

Assay [1] has as its system IL-1α, IL-1β, IL-6, IL-17. As to the kind of experiment: Real-time PCR of proinflammatory cytokines in conjunctiva of DED mice. It is filed as in vivo, mouse. The source says:
(§4) Eight to ten week-old female C57BLI6 mice (Charles River Laboratory, Wilmington, Mass.) were used in accordance with the standards in the ARVO Statement for the Use of Animals in Ophthalmic and Vision Research. The research protocol was approved by the Schepens Eye Research Institute Animal Care and Use Committee. Dry eye was induced in murine eyes using a Controlled Environment Chamber (CEC) which exposes the mice to high-flow desiccated air. To achieve maximum ocular surface dryness, the conditions in CEC were supplemented with topical application of 1% atropine sulfate (Falcon Pharma, Fort Worth, Tex.) twice for the first 48 hours and subcutaneous injections of 0.1 ml of 5 mg/ml of scopolamine hydrobromide (Sigma-Aldrich, St. Louis, Mo.) three times a day, for the entire duration of the experiment.
(§5) Five mice (10 eyes) were included in each group. Two corneas were pooled together to equal as one sample and stored at −80° C. in Trizol (Invitrogen, Carlsbad, Calif.; catalog No. 15596026) until future use. Total RNA was isolated from these corneas using the RNeasy microkit (Qiagen, Valencia, Calif.; catalog No. 74004). Equal amounts of RNA were used to synthesize cDNA using SuperScript™ III Reverse Trancriptase (Invitrogen, Carlsbad, Calif.; catalog No. 18080) according to the manufacturer's recommendations. Real-Time PCR was performed using FAM-MGB dye labeled predesigned primers (Applied Biosystem, Foster City, Calif.) for GAPDH (assay ID.Mm999999 15_gl), VEGF-A (Mm00437304_ml), VEGF-C (Mrn00437313_ml), VEGF-D (Mm00438965_ml), VEGFR-2 (Mm00440099_ml), VEGFR-3 (Mm00433337_ml). 2.5 μl of cDNA was loaded in each well and assays were performed in duplicate. The GAPDH gene was used as the endogenous reference for each reaction. The results were normalized by the cycle threshold (CT) of GAPDH and the relative mRNA level in the normal mice was used as the normalized control.
(§6) Anti-VEGF-C antibodies (VGX-100; Vegenics Limited, Australia) were administered intraperitonealy daily from day 1 to day 10 to DED mice. Mice were assessed clinically using corneal fluorescent staining. Tissues from cornea, conjunctiva and draining lymph nodes were examined for cellular and molecular pathological changes.
(§7) Real time PCR was performed to quantify expression of different VEGF growth factors (VEGF-A, VEGF-C, VEGF-D) and their receptors (VEGFR-2, VEGFR-3) in the cornea at days 6, 10 and 14 (FIG. 8) and to determine the levels of proinflammatory cytokines.

The test system of a further assay is VEGF-C, -D, R3. The assay can be described thus: Real-time PCR of pro-lymphangiogenic growth factors and receptors in DE corneas. The assay is classed as in vivo, mouse. The settings on record: DED mice, VEGF-C blockade.
Excerpt: as §4
as §5, with “The results were normalized by the cycle threshold (CT) of GAPDH and the relative mRNA level in the normal mice was used as the normalized control.” left out
as §7

Another assay has as its system DED mice. The assay can be described thus: Corneal fluorescein staining / clinical signs in experimental dry eye murine model. It is filed as in vivo, mouse. The settings on record: for Clinical signs of DED / disease severity: anti-VEGF-C-treated vs untreated (saline) group, daily i.p.
Excerpt: as §4, §6
Corneal lymphatics play an important role in mediating the corneal inflammation in dry eyes. Experiments: To validate this, inhibition of corneal neolymphangiogenesis was performed in a well characterized mouse model of DED described above. To see if inhibition of corneal neolymphangiogenesis could decrease ocular surface inflammation, anti-VEGF-C antibodies were administered i.p. daily from day −1 to day 10 to DED mice and assessed clinically using corneal fluorescein staining.
Methods (as described previously): Induction of Dry Eye Disease. Experimental Dry Eye Murine Model. Assessment of Corneal Surface: Corneal Fluorescein Staining. Immunohistochemistry: Monocyte/macrophage marker—CD11b; Pan-endothelial marker—CD31; Lymphatic endothelial marker—LYVE-1; Blood vessels: CD31^hi/LYVE-1; Lymph vessels: CD31^lo/LYVE-l^hi. Morphometry of Lymphangiogenesis: Automated image analysis program written using Mat lab. Lymphatic Area (LA)—total surface area of the lymphatic vessels when projected into the plane of the image. Lymphatic Caliber (LC)—measure of the diameters of the lymphatic vessels.
Anti-VEGF-C antibody and treatment regimen. Experimental design: Three groups: Normal, DE group treated with IP normal Saline (Untreated) and DE group treated with anti-VEGF-C antibody (VGX-100; a gift from Vegenics, Australia). Daily IP application of anti-VEGF-C antibody/Normal saline from day −1 to day 13. Dose: […] (20 mg/kg) in […] of Normal Saline.

In assay [2] the test system is IL-17 (Th17 cells) and IFN-γ (Th1 cells). The assay can be described thus: Real-time PCR of inflammatory cytokines in draining lymph nodes of DED mice. The assay is classed as in vivo, mouse. The settings on record: treated vs untreated DED mice.
Excerpt: as §4
Five mice (10 eyes) were included in each group. […]
as §3, §7

Setting [3] is: DED mice, VEGF-C blockade (summary).

As to “VGX-100: human anti-VEGF-C monoclonal antibody produced by hybridoma ATCC PTA-4095; heavy/light chains SEQ ID NO: 34/35; from Vegenics”, in the assay with CD11b+ cells (DED corneas, day 14), the “Decrease of infiltration of CD11b+ cells in DED corneas” value is given as 30%. Further, the “Corneal infiltration of CD11b+ cells” value in the assay on CD11b+ cells (setting [3]) was “decrease”. Besides, the “Corneal lymphangiogenesis / lymphatic growth” value with corneal lymphatics is reported as “suppresses corneallymphangiogenesis”. The “Corneal lymphangiogenesis / lymphatic growth” value with corneal lymphatics (listed as anti-VEGF-C) was “suppression of lymphatic growth”. The “mRNA expression levels of proinflammatory cytokines in the conjunctiva” value in assay [1] (setting [3]) is “decrease”. For the same substance, in assay [1] (treated vs untreated DED mice), the “IL-1α expression in conjunctiva (real-time PCR)” value is reported as “significantly decreased expression”, the “IL-1β expression in conjunctiva (real-time PCR)” value is listed as “significantly decreased expression”, the “IL-6 expression in conjunctiva (real-time PCR)” value is reported as “significantly decreased expression” and the “IL-17 expression in conjunctiva (real-time PCR)” value is “significantly decreased expression”. In addition, in the assay on VEGF-C, -D, R3, the “Expression of VEGF-C in DE corneas” value is listed as “decrease”, the “Expression of VEGF-D in DE corneas” value is on record as “decrease” and the “Expression of VEGFR-3 (R3) in DE corneas” value is on record as “decrease”. Besides, in the assay on DED mice (VEGF-C blockade), the Corneal epitheliopathy result is listed as “decrease”. Besides, the “Clinical signs of DED / disease severity” value in the assay on DED mice is “ameliorates clinical signs of DED”. The “Clinical signs of DED / disease severity” value in the assay on DED mice (listed as anti-VEGF-C) is on record as “significant decrease in disease severity”. Besides, in the assay on DED mice (listed as anti-VEGF-C Ab), the “Clinical signs of DED / disease severity” value is recorded as “ameliorates clinical signs of DED”. Moreover, the “Corneal fluorescein staining (CFS) score” value in the assay with DED mice (days 5, 9 and 13, vs untreated group, daily IP 400 µg (20 mg/kg) in 100 µl saline) is recorded as “significantly decreased”. Besides, in assay [2], the “Induction of T-cell mediated autoimmune response in draining lymph nodes (IL-17, IFN-γ by real-time PCR)” value is recorded as “significantly decreased induction”.

The values are drawn from patent US10940179B2, “Therapeutic compositions for the treatment of dry eye disease” (SCHEPENS EYE RESEARCH INSTITUTE, priority 2010, dated 2021).
